The values that follow come from the NIST ThermoML archive (doi:10.1016/j.jct.2007.11.001).

± gives the expanded uncertainty stated by the source.

For the series the following is noted: Crystal 2; Adiabatic calorimetry.

With `O=P([O-])([O-])[O-].[Cs+].[Mg+2]` [caesium-magnesium monophosphate], the Triple point temperature was 235.69 ± 0.2 K.
